According to PubChem BioAssay AID2180 (Vanderbilt High Throughput Screening Facility, 2009):
Calls of active or inactive are those of the source. No rule for the calls is given here.

Target: Metabotropic glutamate receptor 4 (Homo sapiens) (UniProt Q14833)
Test: PubChem AID 2180
Conditions: CHO hmGluR4/Gqi5, calcium mobilization, glutamate CRC fold-shift

Sequence of Metabotropic glutamate receptor 4 (Homo sapiens) (Q14833 whole entry, looked up): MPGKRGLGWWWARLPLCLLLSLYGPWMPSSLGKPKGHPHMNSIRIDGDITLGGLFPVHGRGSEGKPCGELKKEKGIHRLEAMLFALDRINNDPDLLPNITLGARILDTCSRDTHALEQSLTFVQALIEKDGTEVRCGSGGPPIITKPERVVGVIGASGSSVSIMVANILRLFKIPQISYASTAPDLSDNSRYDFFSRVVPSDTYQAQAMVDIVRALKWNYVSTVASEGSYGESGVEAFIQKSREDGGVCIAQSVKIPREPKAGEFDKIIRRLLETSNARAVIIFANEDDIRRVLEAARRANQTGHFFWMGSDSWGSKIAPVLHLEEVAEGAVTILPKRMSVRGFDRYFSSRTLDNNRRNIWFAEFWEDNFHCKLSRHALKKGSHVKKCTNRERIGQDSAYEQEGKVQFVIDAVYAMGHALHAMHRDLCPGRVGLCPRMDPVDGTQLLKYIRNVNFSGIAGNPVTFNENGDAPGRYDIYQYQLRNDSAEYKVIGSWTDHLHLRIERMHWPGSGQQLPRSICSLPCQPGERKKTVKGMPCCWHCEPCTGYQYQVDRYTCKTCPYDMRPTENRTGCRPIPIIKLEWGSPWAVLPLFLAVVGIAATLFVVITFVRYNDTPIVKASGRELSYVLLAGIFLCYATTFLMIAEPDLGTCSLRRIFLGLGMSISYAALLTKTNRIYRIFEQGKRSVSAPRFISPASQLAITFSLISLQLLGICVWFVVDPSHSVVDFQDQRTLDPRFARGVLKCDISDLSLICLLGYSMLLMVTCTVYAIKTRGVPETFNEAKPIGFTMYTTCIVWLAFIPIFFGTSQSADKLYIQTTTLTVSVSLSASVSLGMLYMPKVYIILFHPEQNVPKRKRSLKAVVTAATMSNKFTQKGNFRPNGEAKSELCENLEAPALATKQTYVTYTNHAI

SMILES	Potency
O=C(Nc1ccc(F)c(C(F)(F)F)c1)c1ccccn1	5160 nM (inactive)
COc1cc(NC(=O)c2ccccn2)ccc1Cl	381 nM
COc1cc(NC(=O)c2ccccn2)ccc1F	604 nM
COc1cc(NC(=O)c2ccccn2)ccc1C	641 nM
O=C(Nc1ccc(Cl)c(C(F)(F)F)c1)c1ccccn1	6060 nM (inactive)
O=C(Nc1cccc(Cl)c1)c1ccccn1	601 nM
COc1ccc(NC(=O)c2ccccn2)cc1Cl	1600 nM
